Experimental data taken from patent US12252508B2, “Ginsenoside and anti-inflammatory composition comprising same” (AMOREPACIFIC CORPORATION, priority 2018, dated 2025).
Entries after “also recorded” stand apart in the source; their conditions may differ.

Experiments:
Format in all cases: cell-based
[1] = tested on: nitric oxide (NO) production in RAW264.7 macrophages; experiment: Nitric oxide (NO) production by Griess reaction in LPS-treated RAW 264.7 macrophages; settings: 1 or 10 μM 1 hour, then 10 ng/mL LPS 1 hour, FIG. 20
Description: RAW 264.7 macrophages were treated with 10 μM L-NAME (NO production inhibitor; control group; Sigma), ginsenosides Rg1, Rg3 and Rb1 (purchased from Sigma), which are marker compounds of red ginseng, as comparative examples of the present disclosure or the novel ginsenoside GS #10 (extracted from ginseng seed) as an example of the present disclosure at 1 or 10 μM for 1 hour, and then treated with 10 ng/mL LPS for 1 hour. The amount of NO produced during 1 hour was measured using the Griess reaction. Briefly, after adding 50 μL of sulfanilamide solution to 50 μL of each ginsenoside sample, the mixture was incubated for 10 minutes at room temperature under protection from light. Then, after adding N-(1-napthyl)ethylenediamine solution (50 μL), the mixture was further incubated for 10 minutes at room temperature under protection from light. The […] of NO was measured at a wavelength of 540 nm using a Tecan Infinite® 200 Pro multiplate reader. Sodium nitrite (NaNO2) was used to create a standard curve.

[2] = tested on: tumor necrosis factor α (TNF-α); experiment: TNF-α secretion by ELISA in LPS-treated RAW 264.7 macrophages; settings: RAW 264.7, serum-free medium, 1 or 10 μM 2 hours, then 10 ng/mL LPS 6 hours, FIG. 17
Description: (§1) RAW 264.7 macrophages were used as in Test Example 2. A serum-free medium without comprising FBS was used for the measurement of the amount of cytokines. After pretreating the cells for 2 hours with each ginsenoside at 1 or 10 μM under the same condition as in Test Example 1 and then treating with 10 ng/mL LPS for 6 hours, only the medium was recovered and the secretion of pro-inflammatory cytokines, tumor necrosis factor α (TNF-α), interleukin 1β (IL-1β) and IL-6, was measured using an enzyme-linked immunosorbent assay kit (Abcam).

SH-SY5Y cells = experiment: Cytotoxicity, cell viability by CCK-8; settings: 0.1, 1, 5, 10, 20 and 50 μM, FIG. 21
Description: After adding 10 μL of CCK-8 reagent to SH-SY5Y cells (Dojindo, MD, USA) on a 96-well plate and maintaining at 37° C. for 2 hours, absorbance was measured at 450 nm.
Cell viability was represented as the percentage (%) of the absolute optical density of each sample with respect to an untreated sample. The concentrations of the novel ginsenoside GS #10 according to an exemplary embodiment of the present disclosure in the medium for culturing the cells were 0.1, 1, 5, 10, 20 and 50 μM.

interleukin 1β (IL-1β) = experiment: IL-1β secretion by ELISA in LPS-treated RAW 264.7 macrophages; settings: RAW 264.7, serum-free medium, 1 or 10 μM 2 hours, then 10 ng/mL LPS 6 hours, FIG. 18
Description: as §1

iNOS = iNOS gene expression by qPCR in LPS-treated RAW 264.7 macrophages; settings: then 10 ng/mL LPS 6 hours
Description: (§2) RAW 264.7 macrophages purchased from ATCC were cultured in Dulbecco's modified Eagle's medium (Sigma) supplemented with 10% fetal bovine serum (FBS; HyClone) and 1% penicillin/streptomycin (Sigma) in a 5% CO2 incubator. After pretreating the RAW 264.7 cells with each of the 7 ginsenosides extracted from ginseng seed (GS #01 to GS #06 and GS #10; 10 μM each) for 2 hours, the cells were further treated with 10 ng/mL lipopolysaccharide (LPS; inflammation-induced group, Sigma) for 6 hours. Then, after extracting RNA using a Trizol™ reagent (Thermo Fisher Scientific), cDNA was synthesized using a RevertAid™ first-strand cDNA synthesis kit (Thermo Fisher Scientific). The expression of inflammation-related genes (IL-1β, IL-6 and iNOS) was observed using a CFX96 real-time quantitative PCR (qPCR) system (Bio-Rad).
(§3) RAW 264.7 macrophages were pretreated with ginsenosides Rg1, Rg3 and Rb1 (purchased from Sigma), which are marker compounds of red ginseng, as comparative examples of the present disclosure or the novel ginsenoside GS #10 (isolated from the ginseng seed extract) as an example of the present disclosure at 1 or 10 μM for 2 hours and then further treated with 10 ng/mL lipopolysaccharide (LPS) for 6 hours to induce inflammation. Then, after extracting RNA and synthesizing cDNA in the same manner as in Test Example 1, the expression of inflammation-related genes was observed by qPCR. […]

IL-6 [3] = experiment: IL-6 secretion by ELISA in LPS-treated RAW 264.7 macrophages; settings: RAW 264.7, serum-free medium, 1 or 10 μM 2 hours, then 10 ng/mL LPS 6 hours, FIG. 19
Description: as §1

IL-6 [4] = experiment: IL-6 gene expression by qPCR in LPS-treated RAW 264.7 macrophages; settings: then 10 ng/mL LPS 6 hours
Description: as §2, §3

IL-1β = IL-1β gene expression by qPCR in LPS-treated RAW 264.7 macrophages; settings: then 10 ng/mL LPS 6 hours
Description: as §2, §3

[5] = tested on: inflammation-related genes (IL-1β, IL-6 and iNOS); experiment: Overall anti-inflammatory effect from qPCR of inflammation-related genes (Test Example 2); settings: RAW 264.7; 1 or 10 μM, LPS 10 ng/mL; relative to Rg1; FIGS. 14-16
Description: as §2, §3

SMILES	NO production-inhibiting ability compared to Rg1, Rg3 and Rb1 [1]	NO production ([1]; with increasing dosage)	secretion of TNF-α [2]	cytotoxicity (cell viability, % of untreated sample) (SH-SY5Y cells)	secretion of IL-1β (interleukin 1β (IL-1β))	expression level of the iNOS gene (iNOS; 10 μM pretreatment 2 hours, compared to Compounds 1-6 at the same concentration, FIG. 13)	anti-inflammatory effect (iNOS expression level) (iNOS; 1 or 10 μM for 2 hours, compared to Rg1, Rg3 and Rb1, FIG. 16, listed as GS #10)	secretion of IL-6 (IL-6 [3])	expression level of the IL-6 gene (IL-6 [4]; 10 μM pretreatment 2 hours, compared to Compounds 1-6 at the same concentration, FIG. 12)	anti-inflammatory effect (IL-6 expression level) (IL-6 [4]; 1 or 10 μM for 2 hours, compared to Rg1, Rg3 and Rb1, FIG. 15)	expression level of the IL-1β gene (IL-1β; 10 μM pretreatment 2 hours, compared to Compounds 1-6 at the same concentration, FIG. 11)	anti-inflammatory effect (IL-1β expression level) (IL-1β; 1 or 10 μM for 2 hours, compared to Rg1, Rg3 and Rb1, FIG. 14)	anti-inflammatory effect superior to that of Rg1 [5]
CC1(C)C(=O)CC[C@@]2(C)C1[C@@H](O[C@H]1OC(CO)[C@H](O)C(O)C1O[C@H]1OC(CO)[C@H](O)C(O)C1O)C[C@]1(C)C2C[C@@H](O)C2C([C@]3(C)CC[C@H](C(C)(C)O)O3)CC[C@]21C (stereo partly drawn) [Compound 10, (20S,24R)-6-O-β-D-glucopyranosyl(1→2)-β-D-glucopyranoside-dammar-3-one-20,24-epoxy-6a,12b,25-triol]	remarkably superior	decreased	significant decreased secretion	no cytotoxicity	significant decreased secretion	remarkably suppress	remarkably excellent anti-inflammatory effect; also recorded: decreased greatly	significant decreased secretion	remarkably suppress	remarkably excellent anti-inflammatory effect	remarkably suppress	remarkably excellent anti-inflammatory effect	about 10 times
CC(C)=CCC[C@](C)(O[C@@H]1O[C@H](CO[C@@H]2O[C@H](CO)[C@@H](O)[C@H](O)[C@H]2O)[C@@H](O)[C@H](O)[C@H]1O)[C@H]1CC[C@]2(C)[C@@H]1[C@H](O)C[C@@H]1[C@@]3(C)CC[C@H](O[C@@H]4O[C@H](CO)[C@@H](O)[C@H](O)[C@H]4O[C@@H]4O[C@H](CO)[C@@H](O)[C@H](O)[C@H]4O)C(C)(C)[C@@H]3CC[C@]12C [Rb1, ginsenoside Rb1]			decreased		decreased			decreased					
CC(C)=CCC[C@](C)(O[C@@H]1O[C@H](CO)[C@@H](O)[C@H](O)[C@H]1O)[C@H]1CC[C@]2(C)[C@@H]1[C@H](O)C[C@@H]1[C@@]3(C)CC[C@H](O)C(C)(C)[C@@H]3[C@@H](O[C@@H]3O[C@H](CO)[C@@H](O)[C@H](O)[C@H]3O)C[C@]12C [Rg1, ginsenoside Rg1]			decreased		decreased			decreased					
CC(C)=CCC[C@](C)(O)[C@H]1CC[C@]2(C)[C@@H]1[C@H](O)C[C@@H]1[C@@]3(C)CC[C@H](O[C@@H]4O[C@H](CO)[C@@H](O)[C@H](O)[C@H]4O[C@@H]4O[C@H](CO)[C@@H](O)[C@H](O)[C@H]4O)C(C)(C)[C@@H]3CC[C@]12C [Rg3, ginsenoside Rg3]			decreased		decreased			decreased					
